Laboratory results published in US12202805B2, “Process for preparing (5S)-{[2-(4-carboxyphenyl)ethyl] |2-(2-{|3-chloro-4'-(trifluoromethyl)biphenyl-4-yl]methoxy}phenyl)ethyl]aminol-5,6,7,8-tetrahydroquinoline-2-carboxylic acid and its crystalline forms for use as pharmaceutically active compound” (Bayer Aktiengesellschaft, priority 2021, dated 2025).

Experiments:
[1] = system: patients with severe pulmonary hypertension; settings: cited from earlier work
[2] = system: thromboxane A2 challenged PAH-minipig; assay: Haemodynamics in the anesthetized thromboxane challenged minipig, inhaled nebulized solution (PAP, BP); assay type: in vivo, Göttingen Minipigs; settings: 10 μg/kg nominal dose inhaled, mean
Protocol: E-1 Haemodynamics in the Anesthetized Thromboxane Challenged Minipig
Lung Selectivity and Duration of Action
Healthy Göttingen Minipigs® Ellegaard (Ellegaard, Denmark) of both sexes and having a weight of 2-6 kg were used. The animals were sedated by i.m. administration of about 25 mg/kg ketamine and about 10 mg/kg azaperone. Anaesthesia was initiated by i.v. administration of about 2 mg/kg ketamine and about 0.3 mg/kg midazolam. Maintenance of anaesthesia was by i.v. administration of about 7.5-30 mg/kg/h ketamine and about 1-4 mg/kg/h midazolam (rate of infusion 1-4 ml/kg/h) and about 150 μg/kg/h pancuronium bromide (for example Pancuronium-Actavis). After intubation, the animals were ventilated by the ventilator at a constant respiratory volume (10-12 ml/kg, 35 breaths/min; Avea®, Viasys Healthcare, USA, or Engström Carestation, GE Healthcare, Freiburg, Germany) such that an end-tidal CO2 concentration of about 5% was achieved. Ventilation was performed with room air, enriched with about 40% oxygen (normoxia). For the measurement of the haemodynamic parameters such as pulmonary arterial pressure (PAP), blood pressure (BP) and heart rate (HR), catheters were inserted into the carotid artery to measure the blood pressure, and a Swan-Ganz® catheter was introduced in a flow-directed manner via the jugular vein into the pulmonary artery. The haemodynamic signals were recorded and evaluated by means of pressure transducers (Combitransducer, B. Braun, Melsungen, Germany)/amplifiers and Ponemah® as data acquisition software.
After the instruments have been placed into the animals, continuous infusion of a thromboxane A2 analog was initiated to increase the pulmonary arterial pressure. About 0.3-0.75 μg/kg/min of 9,11-didesoxy-9α,11α-epoxymethanoprostaglandine F2α (U-44069; Sigma, cat. no. D0400, or Cayman Chemical Company, cat. no. 16440), dissolved in physiological saline, were infused to achieve an increase of the mean pulmonary arterial pressure to values of over 25 mmHg. 30 minutes after the start of the infusion, a plateau was reached, and the experiment was started.
The test substances were administered as i.v. infusion or by inhalation. For the preparation of the solution for inhalation, the following procedure was adopted: For an animal having a weight of 4 kg, to prepare the stock solution (300 μg/kg), 1.2 mg of the test compound were weighed out and dissolved in a total volume of 3 ml (1% DMSO, 99% 0.2% strength citric acid solution, 1 n aqueous sodium hydroxide solution to adjust the pH to 8). The solution was then diluted to the concentration employed using 0.2% strength citric acid which had been adjusted to pH 8 beforehand with aqueous sodium hydroxide solution. In each test, 3 ml of the solution of test compound per 4 kg animal were nebulized in the inhalation arm of the respiratory circuit using the Aeroneb® Pro nebulizer system. The mean nebulization time was about 7 min from the start of the nebulization.
With respect to a prediction of the duration of action for human studies comparative example 11 was compared in the PAH minipig model after inhaled application to Ventavis® (=Iloprost, 10 μg/kg nominal dose), which we used as a clinical reference. […] Therefore, the duration of action is more than 6 times longer compared to Ventavis in this preclinical animal model.

Caco-2 permeability test = assay type: in vitro ADME, human; settings: human, Caco-2, 2.4 μM
Protocol: E-3. Further Characterization E-3.1 Caco-2 Permeability Test
The in vitro permeation of a test compound across a Caco-2 cell monolayer is a well-established assay system to predict the permeability from the gastro-intestinal tract (1). The permeability of the compounds of the present invention in such Caco-2 cells was determined as described below:
Human caco-2 cells were seeded on 24-well insert plates and were allowed to grow for 14-16 days. For permeability studies, the test compounds were dissolved in DMSO and diluted to the final test concentration of 2 μM with transport buffer [Hanks' Buffered Salt Solution, Gibco/Invitrogen, further supplemented with glucose and HEPES]. For determination of the apical to basolateral permeability (PappA-B), the test compound solution was added to the apical side of the cell monolayer and transport buffer to the basolateral side of the monolayer; for determination of the basolateral to apical permeability (PappB-A), the test compound solution was added to the basolateral side of the cell monolayer and transport buffer to the apical side of the monolayer. Samples were taken from the donor compartment at the beginning of the experiment to confirm mass balance. After an incubation of 2 h at 37° C., samples were taken from both compartments. Samples were analyzed by LC-MS/MS, and the apparent permeability coefficients were calculated. Lucifer Yellow permeability was assayed for each cell monolayer to ensure cell monolayer integrity, and the permeability of Atenolol (low permeability marker) and Sulfasalazine (marker for active excretion) was determined for each batch as quality control.

[3] = system: animal model of pulmonary hypertension; settings: cited from earlier work

## CCCCC[C@H](O)CC[C@@H]1[C@H]2Cc3cccc(OCC(=O)O)c3C[C@H]2C[C@H]1O [Treprostinil]
[1]; inhaled, single administration, historical comparison
  mean change in PVR from baseline: approximately −30%

## CC#CCC(C)[C@H](O)/C=C/[C@@H]1[C@H]2C/C(=C/CCCC(=O)O)C[C@H]2C[C@H]1O (stereo partly shown) [Ventavis ®]
[2]; time 0 min
  PAP % changes vs prevalue: 0%
[2]; time 10 min
  PAP % changes vs prevalue: −30.3%
[2]; time 20 min
  PAP % changes vs prevalue: −20.7%
[2]; time 30 min
  PAP % changes vs prevalue: −6.9%
[2]; time 40 min
  PAP % changes vs prevalue: 1.7%
[2]; time 50 min
  PAP % changes vs prevalue: 4.9%

## COC(=O)N(C)c1c(N)nc(-c2nn(Cc3ccccc3F)c3ncccc23)nc1N [Comparative example 2 (Riociguat)]
Caco-2 permeability test
  efflux ratio at 2 h, 2.4 μM: 11 ± 3.3
Caco-2 permeability test; 2 h at 37° C., read-out: Papp A − B (mean +/− SD)
  Papp A→B at 2 h, 2.4 μM: 3.5 ± 0.84 ×10⁻⁶ cm/s
Caco-2 permeability test; 2 h at 37° C., read-out: Papp B − A (mean +/− SD)
  Papp B→A at 2 h, 2.4 μM: 36.7 ± 7.5 ×10⁻⁶ cm/s

## O=C(O)CCCCN(CCc1ccccc1OCc1ccc(CCc2ccccc2)cc1)Cc1ccc(C(=O)O)cc1 [comparative example 1]
[3]; inhalative administration in the form of microparticles
  effect on pulmonary arterial pressure: dose-dependent selective reduction of the pulmonary arterial pressure
[3]; inhalative administration
  duration of action: did not have a sufficient duration of action

## CC#CCC(C)[C@H](O)/C=C/[C@@H]1[C@H]2C/C(=C/CCCC(=O)O)C[C@H]2C[C@H]1O (stereo partly shown) [Ventavis]
[1]; clinical studies
  duration of action on haemodynamics (PVR): about 60 min
